Measurements: PMC12125541, “Timed chromatin invasion during mitosis governs prototype foamy virus integration site selection and infectivity” (Nucleic Acids Research, 2025)
* marks the point of attachment. Biotin = O=C1N[C@H]2[C@H](CS[C@H]2CCCCC(=O)*)N1

Legend:
[1] = test system: NCP saturated with H4 tails (H2A–H2B acidic patch); experiment: BLI competition: immobilized Gag CBS peptides versus NCP saturated with H4 tails; format: binding, human; settings: mean of two experiments; for binding to NCP saturated with WT H4 tail: 100 nM NCP pre-incubated with 100 μM H4 WT peptide at least 30 min at room temperature
Method: Quantitative interaction experiments were performed by biolayer interferometry (BLI), using a BLItz instrument (Octet® N1; Sartorius). Two different runs were performed: the first one, into water, to coat biosensors with biotinylated peptides (Table 1) and the second, into Blitz buffer [1× phosphate buffer saline, pH 7.4, 0.02% (v/v) Tween 20, 0.1% (w/v) BSA], to fix NCPs on immobilized peptides. All steps were performed under 2200 rpm shaking speed. Streptavidin biosensors (Octet®SA Biosensors; Reference 18-0009; Sartorius) were first pre-wet for at least 10 min with water. The baseline, with only water, was measured for 60 s. Ten micromolar Gag CBS biotinylated peptides (or H4 biotinylated peptides), diluted in water, were loaded onto the biosensors, for 180 s, to reach a binding of ∼1.5 nm, followed by a dissociation step of 180 s. Following the first run, coated biosensors were equilibrated for at least 10 min in Blitz buffer. The second run started with 60 s of baseline, followed by the association step, where biosensors were dipped into serial dilutions of NCPs (10, 25, 50, or 100 nM), for 300 s. Finally, the dissociation step was performed in Blitz buffer, for 300 s. For competition experiments, the second run started with 60 s of baseline in Blitz buffer, followed by 300 s of association step. During this step, solutions of 100 nM of NCPs were pre-incubated with or without 100 μM of H4 peptide [wild type (WT) or mutant, non-biotinylated], in Blitz buffer, for at least 30 min at room temperature. Finally, the dissociation step was performed in Blitz buffer, for 180 s. Nonspecific binding controls were performed, such as binding of 100 nM of NCPs on biosensors without biotinylated peptides loaded, as well as binding of Blitz buffer on loaded biosensors. For each time point measured, data of this second control (binding of Blitz buffer on biosensors loaded with biotinylated Gag WT peptide) were subtracted to every condition and were plotted on curves, using Prism 9 software.

[2] = test system: recombinant NCPs; experiment: BLI of immobilized biotinylated peptides with recombinant NCP; format: binding, human; settings: for BLI interaction with nucleosomes: peptide on streptavidin biosensor, NCP 10, 25, 50 or 100 nM, 1× PBS pH 7.4, 0.02% Tween 20, 0.1% BSA, representative of three experiments
Description: Recombinant nucleosome core particles (NCPs) (mono-nucleosomes) were assembled as previously described [13]. Briefly, individual human histones H2A, H2B, H3, and H4 were purchased (The Histone Source; Colorado State University) and octamers were assembled by dialysis. The Widom-601 DNA [25] was generated by restriction enzyme digestion of a concatenated construct and purified by anion exchange chromatography onto a POROS-HQ column. NCPs were assembled with a ratio 1.1:1 (1.1 octamer:1 DNA) by successive steps of salt dialysis against TEN buffer (0–2 M NaCl, 10 mM Tris, pH 7.5, 1 mM ethylenediaminetetraacetic acid, 1 mM Dithiothreitol (DTT)). NCPs were kept at −80°C in 0 mM NaCl TEN buffer.
Quantitative interaction experiments were performed by biolayer interferometry (BLI), using a BLItz instrument (Octet® N1; Sartorius). Two different runs were performed: the first one, into water, to coat biosensors with biotinylated peptides (Table 1) and the second, into Blitz buffer [1× phosphate buffer saline, pH 7.4, 0.02% (v/v) Tween 20, 0.1% (w/v) BSA], to fix NCPs on immobilized peptides. All steps were performed under 2200 rpm shaking speed. Streptavidin biosensors (Octet®SA Biosensors; Reference 18-0009; Sartorius) were first pre-wet for at least 10 min with water. The baseline, with only water, was measured for 60 s. Ten micromolar Gag CBS biotinylated peptides (or H4 biotinylated peptides), diluted in water, were loaded onto the biosensors, for 180 s, to reach a binding of ∼1.5 nm, followed by a dissociation step of 180 s. Following the first run, coated biosensors were equilibrated for at least 10 min in Blitz buffer. The second run started with 60 s of baseline, followed by the association step, where biosensors were dipped into serial dilutions of NCPs (10, 25, 50, or 100 nM), for 300 s. […] For each time point measured, data of this second control (binding of Blitz buffer on biosensors loaded with biotinylated Gag WT peptide) were subtracted to every condition and were plotted on curves, using Prism 9 software.

[3] = test system: recombinant NCPs; experiment: Streptavidin pull-down of recombinant nucleosomes with biotinylated Gag CBS peptides; format: binding, human; settings: 2 h at 4°C; for pull-down of nucleosomes: 75–150 mM NaCl, 1.5 μg biotinylated peptide, 3 μg NCP, Coomassie gel
Description: Recombinant nucleosome core particles (NCPs) (mono-nucleosomes) were assembled as previously described. Briefly, individual human histones H2A, H2B, H3, and H4 were purchased (The Histone Source; Colorado State University) and octamers were assembled by dialysis. The Widom-601 DNA [25] was generated by restriction enzyme digestion of a concatenated construct and purified by anion exchange chromatography onto a POROS-HQ column. NCPs were assembled with a ratio 1.1:1 (1.1 octamer:1 DNA) by successive steps of salt dialysis against TEN buffer (0–2 M NaCl, 10 mM Tris, pH 7.5, 1 mM ethylenediaminetetraacetic acid, 1 mM Dithiothreitol (DTT)). NCPs were kept at −80°C in 0 mM NaCl TEN buffer.
Twenty microliters of streptavidin beads (Dynabeads™ MyOne™ Streptavidin T1; Invitrogen; Thermo Fisher Scientific) were used per condition. StreptaBeads were washed twice with pull-down buffer (20 mM Tris–HCl, pH 7.5, 0.1% NP-40, 10% glycerol, 75–150 mM NaCl, 0.5 mM DTT, and 1 mM Phenylmethylsulfonyl fluoride (PMSF)) containing 75 mM of NaCl and 100 μg of bovine serum albumin (BSA), followed by one wash in the same conditions, without BSA. 1.5 μg of Gag CBS (chromatin binding site) biotinylated peptide and 3 μg of recombinant NCPs were added per condition, in a final volume of 800 μl of pull-down buffer with corresponding NaCl concentrations. The reaction mix was incubated for 2 h on a rotation wheel, at 4°C. Beads were washed three times with the corresponding NaCl concentration buffer, and bound proteins were eluted by the addition of 10 μl of SDS Sample Buffer 2.5×. Samples were separated by sodium dodecyl sulfate–polyacrylamide gel electrophoresis, and analyzed after colloidal Coomassie blue staining.

[4] = target: Gag Y537Q biotinylated peptide (PFV Gag CBS Y537Q) (prototype foamy virus (PFV)); experiment: BLI; biotinylated Gag CBS peptides on streptavidin biosensors; NCP 10, 25, 50 or 100 nM in solution; 1× PBS pH 7.4, 0.02% Tween 20, 0.1% BSA; BLItz instrument

| Substance | binding to NCP saturated with WT H4 tail [1] | BLI interaction with nucleosomes [2] | pull-down of nucleosomes [3] | other results |
| --- | --- | --- | --- | --- |
| Biotin-GGYNLRPRTYQPQRYG-OH [WT CBS peptide] | reached the same level as without H4 tails | strongest BLI interaction | efficiently pulled down nucleosomes across tested salt concentrations | – |
| Recombinant nucleosome core particle (human histone octamer on Widom-601 DNA) (from UniProt P04908 1-130; P06899 1-126; P68431 1-136; P62805 1-103) (complex) | – | – | – | fold reduction of the BLI interaction against the WT CBS peptide [4]: 5 fold |
| Biotin-GGYNLQPRTYQPQRYG-OH [R540Q CBS peptide, Biotinylated PFV Gag CBS peptide with Arg540Gln substitution] | no interaction with the NCP | almost complete reduction | – | pull-down of nucleosomes, physiological salt ([3]; 125–150 mM NaCl): virtually eliminated binding; pull-down of nucleosomes, hypotonic conditions ([3]; low salt (below 125 mM NaCl)): reduced binding |
| Biotin-GGQNLRPRTYQPQRYG-OH [Y537Q CBS peptide, Biotinylated PFV Gag CBS peptide with Tyr537Gln substitution] | unable to effectively compete | – | affected nucleosome interaction, though largely in a salt-independent manner | binding to NCP saturated with H4 mut tail ([1]; 100 nM NCP pre-incubated with 100 μM H4 mut peptide at least 30 min at room temperature): unable to effectively compete |
| Biotin-SGRGKGGKGLGKGGAKRHAAVLA-OH [H4 mut, reference compound] | – | – | – | binding of H4 tail peptide to purified NCPs ([2]; BLI, immobilized H4 peptide, Supplementary Fig. S7): retains some residual binding |
